Source: patent US20090137549A1, “Novel compounds useful for the treatment of degenerative & inflamatory diseases” (priority 2006, published 2009)

target: PDE1A (Homo sapiens, UniProt P54750); assay: PDE1A dose response, Cyclic Nucleotide Phosphodiesterase Assay Kit from Biomol (colorimetric); type: biochemical; conditions: purified PDE1A enzyme, 100 μM cAMP
In short: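 Purified PDE1A hydrolysed 100 μM cAMP with 5′-nucleotidase in Tris 20 mM pH 7.4 with calmodulin, Ca2+, Mg2+, 45 min at 37° C. Released phosphate read by malachite-green absorbance at 615 nm. Duplicate 8-point 1/3 dilutions from 20 μM, 1% DMSO; 10 μM vardenafil defined 100% inhibition.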

IC50, 1000 to 1500 nM:
Cc1nn(C2CCCCC2)c2nc(C3CCCN(S(=O)(=O)c4ccccc4Cl)C3)[nH]c(=O)c12 (stereo not shown) [Example 100, 6-(1-(2-chlorophenylsulfonyl)piperidin-3-yl)-1-cyclohexyl-3-methyl-1H-pyrazolo[3,4-d]pyrimidin-4(5H)-one]
Cc1nn(C2CCCCC2)c2nc(C3CCCN(C(=O)c4cccs4)C3)[nH]c(=O)c12 (stereo not shown) [Example 101, 1-cyclohexyl-3-methyl-6-(1-(thiophene-2-carbonyl)piperidin-3-yl)-1H-pyrazolo[3,4-d]pyrimidin-4(5H)-one]
Cc1nn(C2CCC2)c2nc(C3CCCN(C(=O)c4ccc(C#N)cc4)C3)[nH]c(=O)c12 (stereo not shown) [Example 102, 4-(3-(1-cyclobutyl-3-methyl-4-oxo-4,5-dihydro-1H-pyrazolo[3,4-d]pyrimidin-6-yl)piperidine-1-carbonyl)benzonitrile]
Cc1nn(C2CCCCC2)c2nc(C3CCCN(S(=O)(=O)Cc4ccccc4)C3)[nH]c(=O)c12 (stereo not shown) [Example 103, 6-(1-(benzylsulfonyl)piperidin-3-yl)-1-cyclohexyl-3-methyl-1H-pyrazolo[3,4-d]pyrimidin-4(5H)-one]
CCCCCS(=O)(=O)N1CC(c2nc3c(cnn3C3CCCCC3)c(=O)[nH]2)C1 [Example 104, 1-cyclohexyl-6-(1-(pentylsulfonyl)azetidin-3-yl)-1H-pyrazolo[3,4-d]pyrimidin-4(5H)-one]
O=c1[nH]c(C2CCCN(S(=O)(=O)c3ccc(OC(F)(F)F)cc3)C2)nc2c1cnn2C1CCCCC1 (stereo not shown) [Example 105, 1-cyclohexyl-6-(1-(4-(trifluoromethoxy)phenylsulfonyl)piperidin-3-yl)-1H-pyrazolo[3,4-d]pyrimidin-4(5H)-one]
Cc1nn(C2CCCCC2)c2nc(C3CCCN(S(=O)(=O)c4ccccc4)C3)[nH]c(=O)c12 (stereo not shown) [Example 106, 1-cyclohexyl-3-methyl-6-(1-(phenylsulfonyl)piperidin-3-yl)-1H-pyrazolo[3,4-d]pyrimidin-4(5H)-one]
Cc1nn(C2CCCCC2)c2nc(C3CCCN(S(=O)(=O)c4ccccc4OC(F)(F)F)C3)[nH]c(=O)c12 (stereo not shown) [Example 107, 1-cyclohexyl-3-methyl-6-(1-(2-(trifluoromethoxy)phenylsulfonyl)piperidin-3-yl)-1H-pyrazolo[3,4-d]pyrimidin-4(5H)-one]
CC(C)N1CC(n2ncc3c(=O)[nH]c(C4CN(C(=O)Nc5ccc(F)cc5)C4)nc32)C1 [Example 108, N-(4-fluorophenyl)-3-(1-(1-isopropylazetidin-3-yl)-4-oxo-4,5-dihydro-1H-pyrazolo[3,4-d]pyrimidin-6-yl)azetidine-1-carboxamide]
Cc1nn(-c2ccccc2)c2nc(C3CCCN(C(=O)c4ccc(C#N)cc4)C3)[nH]c(=O)c12 (stereo not shown) [Example 109, 4-(3-(3-methyl-4-oxo-1-phenyl-4,5-dihydro-1H-pyrazolo[3,4-d]pyrimidin-6-yl)piperidine-1-carbonyl)benzonitrile]
N#Cc1ccc(C(=O)N2CCCC(c3nc4c(cnn4-c4ccccc4)c(=O)[nH]3)C2)cc1 (stereo not shown) [Example 110, 4-(3-(4-oxo-1-phenyl-4,5-dihydro-1H-pyrazolo[3,4-d]pyrimidin-6-yl)piperidine-1-carbonyl)benzonitrile]
CCCn1nc(C)c2c(=O)[nH]c(C3CCCN(S(=O)(=O)c4ccc(OC)cc4)C3)nc21 (stereo not shown) [Example 111, 6-(1-(4-methoxyphenylsulfonyl)piperidin-3-yl)-3-methyl-1-propyl-1H-pyrazolo[3,4-d]pyrimidin-4(5H)-one]
Cc1nn(C2CCCCC2)c2nc(C3CCCN(C(=O)CCc4ccccc4)C3)[nH]c(=O)c12 (stereo not shown) [Example 112, 1-cyclohexyl-3-methyl-6-(1-(3-phenylpropanoyl)piperidin-3-yl)-1H-pyrazolo[3,4-d]pyrimidin-4(5H)-one]
